# Assay results published in patent US20230085307A1, “PYRIDAZINONE COMPOUND AND HERBICIDE” (NISSAN CHEMICAL CORPORATION, priority 2019, published 2023).
# Tests used:
# redroot pigweed [1] = experiment: Test Example 5: herbicidal effect by foliage application, plastic box (Table 20, symbol N); type: in vivo, redroot pigweed (Amaranthus retroflexus); details: foliage application; for N: redroot pigweed, herbicidal effect grade: 320 g/ha, three weeks after application
# Procedure, shortened: (§1)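 Plants were sown into sterilized diluvial soil under about 1.5 cm cover and kept in a greenhouse at 25° C. to 30° C. Fourteen days on, foliage received an even spray of the diluted emulsion. Herbicidal or crop effect was judged three weeks afterwards.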
# green foxtail [2] = experiment: Test Example 5: herbicidal effect by foliage application, plastic box (Table 20, symbol G); type: in vivo, green foxtail (Setaria viridis); details: foliage application; for G: green foxtail, herbicidal effect grade: 320 g/ha, three weeks after application
# Procedure, shortened: as §1
# oval-leafed pondweed = experiment: Test Example 1: herbicidal activity, application before weed generation under submerged conditions (Table 16, symbol C); type: in vivo, oval-leafed pondweed (Monochoria vaginalis); details: for Herbicidal effect, C: oval-leafed pondweed: amount of applied herbicide 320 g/ha
# Text: [Test Example 1] Herbicidal Activity Test by Application before Weed Generation under Submerged Conditions After alluvial soil was placed into 1/10000 are of Wagner pot, water was poured and mixed to form a submerged condition having a water depth of 4 cm. Seeds of late watergrass, Japanese bulrush, and oval-leafed pondweed were sowed in a mixed manner in the aforementioned pot, and then 2.5 leaf stage rice plant seedlings were transplanted thereto. On the day of sowing seeds, the emulsion agent of the compound of the present invention prepared according to Formulation Example 2 was diluted with water so as to achieve a predetermined herbicide amount, and the diluted emulsion agent was applied to the surface of the water. The pot was placed in a greenhouse at 25° C. to 30° C. for growth of the plants. Three weeks after the herbicide application, the effect of the herbicide on each plant was evaluated according to the following criteria. Evaluation Criteria 5: Herbicidal rate of 90% or more (almost completely withered) 4: Herbicidal rate of 70% or more and less than 90% 3: Herbicidal rate of 40% or more and less than 70% 2: Herbicidal rate of 20% or more and less than 40% 1: Herbicidal rate of 5% or more and less than 20% 0: Herbicidal rate of 5% or less (almost no effect)
# velvetleaf [3] = experiment: Test Example 5: herbicidal effect by foliage application, plastic box (Table 20, symbol M); type: in vivo, velvetleaf (Abutilon theophrasti); details: foliage application; for M: velvetleaf, herbicidal effect grade: 320 g/ha, three weeks after application
# Procedure, shortened: as §1
# southern crabgrass [4] = experiment: Test Example 5: herbicidal effect by foliage application, plastic box (Table 20, symbol F); type: in vivo, southern crabgrass (Digitaria ciliaris); details: foliage application; for F: southern crabgrass, herbicidal effect grade: 320 g/ha, three weeks after application
# Procedure, shortened: as §1
# blackgrass = experiment: Test Example 5: herbicidal effect by foliage application, plastic box (Table 20, symbol J); type: in vivo, blackgrass (Alopecurus myosuroides); details: foliage application, AAH 320 g/ha, evaluated three weeks after application
# Procedure, shortened: as §1
# windgrass = experiment: Test Example 5: herbicidal effect by foliage application, plastic box (Table 20, symbol L); type: in vivo, windgrass (Apera spica-venti); details: foliage application, AAH 320 g/ha, evaluated three weeks after application
# Procedure, shortened: as §1
# barnyard grass [5] = experiment: Test Example 5: herbicidal effect by foliage application, plastic box (Table 20, symbol H); type: in vivo, barnyard grass (Echinochloa crus-galli); details: foliage application; for H: barnyard grass, herbicidal effect grade: 320 g/ha, three weeks after application
# Procedure, shortened: as §1
# barnyard grass [6] = experiment: Test Example 3: herbicidal effect by foliage application, Wagner pot (Table 18, symbol H); type: in vivo, barnyard grass (Echinochloa crus-galli); details: amount of applied herbicide 320 g/ha
# Procedure, shortened: (§2)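 Plants were sown in alluvial soil held under 0.1–0.5 cm standing water and grown 14 days in a greenhouse at 25–30 °C. An emulsifiable formulation, water-diluted to the set dose, was then sprayed onto the foliage, and effects were scored three weeks later using previously defined criteria.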
# persian speedwell = experiment: Test Example 5: herbicidal effect by foliage application, plastic box (Table 20, symbol R); type: in vivo, Persian speedwell (Veronica persica); details: foliage application, AAH 320 g/ha, evaluated three weeks after application
# Procedure, shortened: as §1
# Japanese bulrush = experiment: Test Example 1: herbicidal activity, application before weed generation under submerged conditions (Table 16, symbol B); type: in vivo, Japanese bulrush (Schoenoplectus juncoides); details: for Herbicidal effect, B: Japanese bulrush: amount of applied herbicide 320 g/ha
# Procedure, shortened: (§3)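 Submerged Wagner pots (alluvial soil, 4 cm water) sown with weed seeds and planted with 2.5-leaf rice seedlings; emulsifiable concentrate diluted in water applied to water surface on sowing day. Held in greenhouse at 25-30 °C; injury scored 0-5 by herbicidal rate after three weeks.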
# late watergrass = experiment: Test Example 1: herbicidal activity, application before weed generation under submerged conditions (Table 16, symbol A); type: in vivo, late watergrass (Echinochloa oryzicola); details: for Herbicidal effect, A: late watergrass: amount of applied herbicide 320 g/ha
# Procedure, shortened: as §3
# wild oat = experiment: Test Example 5: herbicidal effect by foliage application, plastic box (Table 20, symbol I); type: in vivo, wild oat (Avena fatua); details: foliage application, AAH 320 g/ha, evaluated three weeks after application
# Procedure, shortened: as §1
# Italian ryegrass = experiment: Test Example 5: herbicidal effect by foliage application, plastic box (Table 20, symbol K); type: in vivo, Italian ryegrass (Lolium multiflorum); details: foliage application, AAH 320 g/ha, evaluated three weeks after application
# Procedure, shortened: as §1
# Chinese sprangletop = experiment: Test Example 3: herbicidal effect by foliage application, Wagner pot (Table 18, symbol D); type: in vivo, chinese sprangletop (Leptochloa chinensis); details: amount of applied herbicide 320 g/ha
# Procedure, shortened: as §2
# lambsquarters [7] = experiment: Test Example 5: herbicidal effect by foliage application, plastic box (Table 20, symbol O); type: in vivo, lambsquarters (Chenopodium album); details: foliage application; for O: lambsquarters, herbicidal effect grade: 320 g/ha, three weeks after application
# Procedure, shortened: as §1
# rice flat sedge = experiment: Test Example 3: herbicidal effect by foliage application, Wagner pot (Table 18, symbol E); type: in vivo, rice flat sedge (Cyperus iria); details: amount of applied herbicide 320 g/ha
# Procedure, shortened: as §2
# velvetleaf [8] = experiment: Test Example 4: herbicidal effect by soil treatment (Table 19, symbol M); type: in vivo, velvetleaf (Abutilon theophrasti); details: amount of applied herbicide 320 g/ha
# Procedure, shortened: (§4)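 Pre-emergence style soil spray: seeds under ~1.5 cm sterilized diluvial soil received a uniform coat of emulsion diluted to the predetermined herbicide amount. Greenhouse 25–30° C; readout at week three on previously defined criteria.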
# barnyard grass [9] = experiment: Test Example 4: herbicidal effect by soil treatment (Table 19, symbol H); type: in vivo, barnyard grass (Echinochloa crus-galli); details: amount of applied herbicide 320 g/ha
# Procedure, shortened: as §4
# lambsquarters [10] = experiment: Test Example 4: herbicidal effect by soil treatment (Table 19, symbol O); type: in vivo, lambsquarters (Chenopodium album); details: amount of applied herbicide 320 g/ha
# Procedure, shortened: as §4
# southern crabgrass [11] = experiment: Test Example 4: herbicidal effect by soil treatment (Table 19, symbol F); type: in vivo, southern crabgrass (Digitaria ciliaris); details: amount of applied herbicide 320 g/ha
# Procedure, shortened: as §4
# green foxtail [12] = experiment: Test Example 4: herbicidal effect by soil treatment (Table 19, symbol G); type: in vivo, green foxtail (Setaria viridis); details: amount of applied herbicide 320 g/ha
# Procedure, shortened: as §4
# redroot pigweed [13] = experiment: Test Example 4: herbicidal effect by soil treatment (Table 19, symbol N); type: in vivo, redroot pigweed (Amaranthus retroflexus); details: amount of applied herbicide 320 g/ha
# Procedure, shortened: as §4
# [14] = AAH 320 g/ha, evaluated three weeks after application
SMILES,herbicidal effect on H: barnyard grass (barnyard grass [6]),herbicidal effect on D: Chinese sprangletop (Chinese sprangletop),herbicidal effect on E: rice flat sedge (rice flat sedge),"N: redroot pigweed, herbicidal effect grade (redroot pigweed [1])","G: green foxtail, herbicidal effect grade (green foxtail [2])","Herbicidal effect, C: oval-leafed pondweed (oval-leafed pondweed)","M: velvetleaf, herbicidal effect grade (velvetleaf [3])","herbicidal effect, M: velvetleaf (velvetleaf [8])","F: southern crabgrass, herbicidal effect grade (southern crabgrass [4])","H: barnyard grass, herbicidal effect grade (barnyard grass [5])","Herbicidal effect, B: Japanese bulrush (Japanese bulrush)","Herbicidal effect, A: late watergrass (late watergrass)","herbicidal effect, H: barnyard grass (barnyard grass [9])","herbicidal effect, O: lambsquarters (lambsquarters [10])","herbicidal effect, F: southern crabgrass (southern crabgrass [11])","herbicidal effect, G: green foxtail (green foxtail [12])","herbicidal effect, N: redroot pigweed (redroot pigweed [13])","O: lambsquarters, herbicidal effect grade (lambsquarters [7])",other results
CCCC(=O)Oc1c(C)nn(C)c(=O)c1-c1c(-c2ccc(Cl)cc2Cl)sc2ccc(F)cc12 [2-347],4 (Herbicidal rate of 70% or more and less than 90%),4 (Herbicidal rate of 70% or more and less than 90%),4 (Herbicidal rate of 70% or more and less than 90%),–,–,–,–,–,–,–,–,–,–,–,–,–,–,–,"N: redroot pigweed, herbicidal effect (criteria 0-5) (redroot pigweed [1]; [14]): 0 (Herbicidal rate of 5% or less (almost no effect)); G: green foxtail, herbicidal effect (criteria 0-5) (green foxtail [2]; [14]): 0 (Herbicidal rate of 5% or less (almost no effect)); Herbicidal effect on C: oval-leafed pondweed (grade 0-5) (oval-leafed pondweed; 320 g/ha applied herbicide): 0 (Herbicidal rate of 5% or less (almost no effect)); M: velvetleaf, herbicidal effect (criteria 0-5) (velvetleaf [3]; [14]): 0 (Herbicidal rate of 5% or less (almost no effect)); F: southern crabgrass, herbicidal effect (criteria 0-5) (southern crabgrass [4]; [14]): 0 (Herbicidal rate of 5% or less (almost no effect)); J: blackgrass, herbicidal effect (criteria 0-5) (blackgrass): 0 (Herbicidal rate of 5% or less (almost no effect)); L: windgrass, herbicidal effect (criteria 0-5) (windgrass): 3 (Herbicidal rate of 40% or more and less than 70%); H: barnyard grass, herbicidal effect (criteria 0-5) (barnyard grass [5]; [14]): 0 (Herbicidal rate of 5% or less (almost no effect)); R: persian speedwell, herbicidal effect (criteria 0-5) (persian speedwell): 4 (Herbicidal rate of 70% or more and less than 90%); Herbicidal effect on B: Japanese bulrush (grade 0-5) (Japanese bulrush; 320 g/ha applied herbicide): 0 (Herbicidal rate of 5% or less (almost no effect)); Herbicidal effect on A: late watergrass (grade 0-5) (late watergrass; 320 g/ha applied herbicide): 3 (Herbicidal rate of 40% or more and less than 70%); I: wild oat, herbicidal effect (criteria 0-5) (wild oat): 3 (Herbicidal rate of 40% or more and less than 70%); K: Italian ryegrass, herbicidal effect (criteria 0-5) (Italian ryegrass): 0 (Herbicidal rate of 5% or less (almost no effect)); O: lambsquarters, herbicidal effect (criteria 0-5) (lambsquarters [7]; [14]): 3 (Herbicidal rate of 40% or more and less than 70%)"
Cc1nn(C)c(=O)c(-c2c(-c3ccc(OCC[S+](C)[O-])cc3)sc3ccc(F)cc23)c1O (centres unmarked) [2-443],5 (Herbicidal rate of 90% or more (almost completely withered)),4 (Herbicidal rate of 70% or more and less than 90%),5 (Herbicidal rate of 90% or more (almost completely withered)),5 (Herbicidal rate of 90% or more (almost completely withered)),5 (Herbicidal rate of 90% or more (almost completely withered)),0 (Herbicidal rate of 5% or less (almost no effect)),5 (Herbicidal rate of 90% or more (almost completely withered)),3 (Herbicidal rate of 40% or more and less than 70%),5 (Herbicidal rate of 90% or more (almost completely withered)),5 (Herbicidal rate of 90% or more (almost completely withered)),0 (Herbicidal rate of 5% or less (almost no effect)),3 (Herbicidal rate of 40% or more and less than 70%),5 (Herbicidal rate of 90% or more (almost completely withered)),4 (Herbicidal rate of 70% or more and less than 90%),5 (Herbicidal rate of 90% or more (almost completely withered)),5 (Herbicidal rate of 90% or more (almost completely withered)),5 (Herbicidal rate of 90% or more (almost completely withered)),5 (Herbicidal rate of 90% or more (almost completely withered)),–
Cc1nn(C)c(=O)c(-c2c(-c3ccc(OCCS(C)(=O)=O)cc3)sc3ccc(F)cc23)c1O [2-444],5 (Herbicidal rate of 90% or more (almost completely withered)),4 (Herbicidal rate of 70% or more and less than 90%),5 (Herbicidal rate of 90% or more (almost completely withered)),5 (Herbicidal rate of 90% or more (almost completely withered)),5 (Herbicidal rate of 90% or more (almost completely withered)),0 (Herbicidal rate of 5% or less (almost no effect)),5 (Herbicidal rate of 90% or more (almost completely withered)),3 (Herbicidal rate of 40% or more and less than 70%),5 (Herbicidal rate of 90% or more (almost completely withered)),5 (Herbicidal rate of 90% or more (almost completely withered)),0 (Herbicidal rate of 5% or less (almost no effect)),3 (Herbicidal rate of 40% or more and less than 70%),4 (Herbicidal rate of 70% or more and less than 90%),5 (Herbicidal rate of 90% or more (almost completely withered)),5 (Herbicidal rate of 90% or more (almost completely withered)),5 (Herbicidal rate of 90% or more (almost completely withered)),5 (Herbicidal rate of 90% or more (almost completely withered)),5 (Herbicidal rate of 90% or more (almost completely withered)),–
CON=C(C)CSc1ccc(-c2sc3ccc(F)cc3c2-c2c(O)c(C)nn(C)c2=O)cc1 [2-451],5 (Herbicidal rate of 90% or more (almost completely withered)),3 (Herbicidal rate of 40% or more and less than 70%),5 (Herbicidal rate of 90% or more (almost completely withered)),5 (Herbicidal rate of 90% or more (almost completely withered)),5 (Herbicidal rate of 90% or more (almost completely withered)),0 (Herbicidal rate of 5% or less (almost no effect)),5 (Herbicidal rate of 90% or more (almost completely withered)),3 (Herbicidal rate of 40% or more and less than 70%),4 (Herbicidal rate of 70% or more and less than 90%),5 (Herbicidal rate of 90% or more (almost completely withered)),0 (Herbicidal rate of 5% or less (almost no effect)),2 (Herbicidal rate of 20% or more and less than 40%),0 (Herbicidal rate of 5% or less (almost no effect)),4 (Herbicidal rate of 70% or more and less than 90%),0 (Herbicidal rate of 5% or less (almost no effect)),0 (Herbicidal rate of 5% or less (almost no effect)),5 (Herbicidal rate of 90% or more (almost completely withered)),5 (Herbicidal rate of 90% or more (almost completely withered)),–
